Data set [1] deals with blood-testis barrier (BTB). The data set is described as follows: Blood-testis barrier integrity by micropuncture, [125I]-BSA in STF and RTF. In kind it is in vivo, rat. Particulars: for effect on BTB integrity: intratesticular injection 1.5 mg/testis. The procedure: Assessing the occludin-peptide induced disruption of the blood-testis barrier (BTB) by micropuncture techniques.
Briefly, 5 μg of BSA (Sigma, RIA grade, Mr 68 kDa) was radioiodinated by Iodogen (Fraker et al., 1978) using 1 mCi of [^125I]-sodium iodide (Amersham Pharmacia Biotech) as described (Cheng et al., 1983).
Detection of [^125]-BSA in seminiferous tubular fluid (STF) and rete testis fluid (RTF). 2, 4, 6, and 12-week after an intratesticular administration of 1.5 mg of either occludin or myotubularin peptide/testis as described above (administered at 3 sites to the right testis) where the left testis of the same animal was used as a control. Rats (n=4-6 rats per time point, approximately 250 gm b.w. at the time of peptide treatment) were anesthetized with ketamine HCl (Fort Dodge Laboratories, Inc., Fort Dodge Iowa) at 60 mg/kg b.w. Micropuncture was performed essentially as described (Turner et al., 1984; Stahler et al., 1991). Briefly, testes were exposed through an abdominal incision, and the efferent ducts were ligated with surgical silk thread. Testes were then returned to the scrotum, wound cleansed with 70% ethanol, surgically closed and animals were allowed to recover. Twenty-four hours after efferent duct ligation, rats were anesthetized by ketamine HCl, bilateral nephrectomy was performed to prevent renal excretion of [^125I]-BSA, and approximately 6×10^6 cpm of [^125I]-BSA was infused into the rat via jugular vein. Two hours after infusion, testes were removed, RTF and STF were collected as described (Turner et al, 1984; Stahler et al., 1991) for radioactivity determination in a γ-counter. The left testis from the same animal without receiving either the occludin or myotubularin peptide served as a control, and both STF and RTF were also collected for radioactivity determination to assess the integrity of the BTB.

Data set [2] relates to inter-Sertoli TJ-permeability barrier. The experiment in a line: Transepithelial electrical resistance (TER) across Sertoli cell epithelia. In kind it is cell-based, rat. On the procedure:
Preparation of Sertoli cell cultures. Primary Sertoli cells were isolated from 20-day-old Sprague-Dawley rat testes as previously described (Cheng et al., 1986). For low cell density cultures, Sertoli cells were plated at 5×10^4 cells/cm^2 in 100-mm Petri dishes [approximately 4.5×10^6 cells/100-mm dish/9 ml Ham's F12 Nutrient Mixture/Dulbecco's Modified Eagle's Medium (F12/DMEM, 1:1, vol/vol, Life Technologies, Inc.); F12/DMEM were supplemented with 15 mM HEPES, 1.2 g/L sodium bicarbonate, 10 μg/ml bovine insulin, 5 μg/ml human transferrin, 2.5 ng/ml EGF, 20 mg/L gentamicin and 10 μg/ml bacitracin. Sertoli cells cultured under low cell density formed monolayer epithelia without the assembly of inter-Sertoli TJs when monitored by TER measurement (Grima et al., 1998). However, both adherens junctions (AJs) and gap junctions (GJs) were formed (Chung et al., 1999). For high cell density cultures, Sertoli cells were plated on Matrigel™ (Collaborative Biochemical Products, Belford, Mass.)-coated (diluted 1:7 with F12/DMEM, vol/vol) 24-well dishes (effective surface area, approximately 1.88 cm^2, with 2 ml F12/DMEM per well) at a density of 0.6-3×10^6 cells/cm^2 as previously described (Grima et al., 1998) to allow formation of TJs, AJs and GJs, mimicking Sertoli cells found in vivo when assessed by various criteria (Grima et al., 1992). Cell cultures were incubated in a humidified atmosphere of 95% air and 5% CO2 (vol/vol) at 35° C. and TER readings were recorded 24 hr later and designated as cultures at day 1.
Assessing the integrity of the inter-Sertoli TJ-permeability barrier by measuring the transepithelial electrical resistance (TER) across Sertoli cell epithelia To assess the effects of occludin peptide on the assembly of inter-Sertoli TJs, Sertoli cells isolated from 20-day-old rat testes were cultured at 1.2×10^6 cells/cm^2 to allow the assembly of inter-Sertoli TJs, and the TER, which is a quantitative measurement of TJ integrity, across the Sertoli cell epithelia was quantified as previously described (Wong et al., 2000; Grima et al. 1998). Cells were plated on Matrigel™ (1:7)-coated HA filters in the apical chamber (Millipore, Bedford, Mass.) (25, 28). Great care was taken so that air bubbles were not trapped between Sertoli cell aggregates, which is the major obstacle to obtain steady TER across the Sertoli cell epithelia since air bubbles create physical pores between adjacent Sertoli cells. TER across the Sertoli cell epithelia at specific time points was determined by a Millicell electrical resistance system as described (Grima et al., 1998; Cheng and Chung, 2001). The resistance in ohm was multiplied by the effective surface area of the bicameral unit (approximately 0.6 cm^2) to yield the area resistance (ohm.cm^2). The net value of electrical resistance was then computed by substracting the background, which was measured on the Matrigel-coated cell-free chambers, from values of Sertoli cell-plated chambers. To minimize temperature-induced fluctuations during TER measurement, cultures were stabilized at room temperature for 20-30 minutes prior to recording TER across the Sertoli cell epithelia. Synthetic occludin peptide at 0.2-4 μM was included in the basal (0.5 ml F12/DMEM containing 0.03% DMSO, vol/vol, DMSO was used to solubilize the peptide in medium) and apical (0.5 ml F12/DME containing 0.03% DMSO, vol/vol) chambers of the bicameral units 24 hours after freshly isolated Sertoli cells were plated onto Matrigel-coated units (day 1). […]

The test system of data set [3] is spermatogenesis in adult rat testis. The experiment in a line: Intratesticular injection: testicular weight and histological analysis of the testis. In kind it is in vivo. On the procedure:
Intratesticular injection of occludin peptide and histological analysis of the testis. To assess the in vivo effects of the occludin peptide on spermatogenesis, peptide was administered to testes of adult rats by direct intratesticular injection as follows. Peptide was suspended in 0.9% sterile saline, sterilized by exposure to UV for 5 minutes. […] First, UV treated peptide retained the same retention time on reverse-phase HPLC using a Vydac C18 column (4.6×250 mm, i.d.) (Cheng et al., 1998; Cheng et al., 1989) when compared to peptide prior to the UV treatment. Second, the primary sequence of the UV-trated peptide remain unaltered when direct protein microsequencing was performed as described (Mruk and Cheng, 1990; Cheng et al., 1998; Cheng et al., 1989). Adult rats weighing between 250 and 300 g body weight were anesthetized with Metofane® before treatment. Rats received either 300 μl of 0.9% sterile saline (vehicle control), no treatment (control), or 1.5-10 mg of occludin peptide suspended in 300 μl of 0.9% sterile saline intratesticularly. The right testis of an animal received the peptide or vehicle and the left testis of the same animal was not treated and was used as a control. Peptide or vehicle was administered at 3 sites/testis with about 100 μl sample per site essentially as previously described (Grima et al., 1998; Eng et al., 1994). In another control group, rats were injected with a synthetic 22-amino acid peptide of NH2—[…]—COOH based on a known Sertoli cell protein, rat myotubularin (rMTM) (Li et al., 2000; Li et al., 2001), which had no sequence homology with occludin. Three rats were used in each treatment group and rats were sacrificed by CO2 asphyxiation at specific time points. Testes were removed immediately and fixed in 10% neutral buffered formalin. Testes were embedded in paraffin, and dehydrated in graded ethanol. For morphological analysis, 5 μm sections were cut and stained with hematoxylin and eosin. About 50 sections were examined at different sites for each testis using an Olympus BX40 microscope (Tokyo, Japan), interfaced to an Olympus PM-30 Exposure Control Unit.
Following HPLC purification, occludin or myotubularin peptide was suspended in 0.9% sterile saline and sterilized under UV for 5 minutes. Each rat in the experimental group received an intratesticular injection of 300 μl of saline containing either 0.15 mg or 1.5 mg of the corresponding purified peptide. The peptide suspension was distributed in each testis at 3 sites (approximately […] per site) as described in Materials and Methods and detailed elsewhere (Grima et al., 1992; Eng et al., 1994). […] FIGS. 6D-F are another control set of testes where rats received an intratesticular injection of the myotubularin peptide at 10 (FIG. 6D), 23 (FIG. 6E), and 40 days (FIG. 6F) post-treatment.

Another data set has as its system Sertoli cells. The data set is described as follows: Trypan blue dye-exclusion cell viability test. In kind it is cell-based, rat. To be noted: peptide-treated cultures (data not shown).
A short description of data set [4]: Stability of peptide to UV sterilization (HPLC retention, microsequencing). In kind it is physicochemical. To be noted: UV 5 minutes, suspension in 0.9% saline. On the procedure: Intratesticular injection of occludin peptide and histological analysis of the testis. To assess the in vivo effects of the occludin peptide on spermatogenesis, peptide was administered to testes of adult rats by direct intratesticular injection as follows. Peptide was suspended in 0.9% sterile saline, sterilized by exposure to UV for 5 minutes. […] First, UV treated peptide retained the same retention time on reverse-phase HPLC using a Vydac C18 column (4.6×250 mm, i.d.) (Cheng et al., 1998; Cheng et al., 1989) when compared to peptide prior to the UV treatment. Second, the primary sequence of the UV-trated peptide remain unaltered when direct protein microsequencing was performed as described (Mruk and Cheng, 1990; Cheng et al., 1998; Cheng et al., 1989). Adult rats weighing between 250 and 300 g body weight were anesthetized with Metofane® before treatment. Rats received either 300 μl of 0.9% sterile saline (vehicle control), no treatment (control), or 1.5-10 mg of occludin peptide suspended in 300 μl of 0.9% sterile saline intratesticularly. The right testis of an animal received the peptide or vehicle and the left testis of the same animal was not treated and was used as a control. Peptide or vehicle was administered at 3 sites/testis with about 100 μl sample per site essentially as previously described (Grima et al., 1998; Eng et al., 1994). […]

Where [5] appears, read: 1.5 mg/testis, 2, 4, 6 and 12 weeks, vs rats without peptide.

On to “NH2—TKVNERYELCDTYPALLAVPAN—COOH (H-TKVNERYELCDTYPALLAVPAN-OH) [myotubularin peptide]”, for which, in data set [1] (setting [5]), the “radioactivity detected in RTF” value was “indistinguishable from control rats” and the “radioactivity detected in STF” value is listed as “indistinguishable from control rats”. Moreover, the “effect on BTB integrity” value in data set [1] is “failed to induce disruption of the BTB”. For the same substance, the “effects to perturb the inter-Sertoli TJ barrier” value in data set [2] (4 μM (data not shown)) is “no apparent effects”.
For “H-GSQIYTICSQFYTPGGTGLYVD-OH [occludin peptide]”, the “reduction of seminiferous tubular diameter” value in data set [3] (27 days, compared to control, vehicle or myotubularin peptide testes) was 20-30%. Besides, the “time for almost full recovery of testes” value in data set [3] (68 days versus 27 days post-treatment) is recorded as at most 40 days. Also, the germ cell repopulation result in data set [3] (after 27 days post treatment) is on record as “began to repopulate in the epithelium”. Also, the “appearance of the testis and the epididymis” value in data set [3] (after intratesticular injection) is “appeared normal”. For the same substance, the “elongated spermatids in seminiferous epithelium” value in data set [3] (between 8 and 16 days after treatment) is listed as “began to deplete from the epithelium”. In addition, the “germ cells in epithelium, virtually all tubules examined” value in data set [3] (by 27 days after intratesticular injection) was “Massive depletion of germ cells”. The morphology of tubules entry in data set [3] (by 47 days post treatment) is “spermatocytes were clearly visible in all the tubules examined”. Also, the “morphology of the seminiferous epithelium” value in data set [3] (by 68 days post treatment) was “indistinguishable from control rats”. Moreover, in data set [3] (within 2 weeks after intratesticular injection of 0.15 mg or 1.5 mg, vs no treatment, vehicle or myotubularin peptide (FIG. 5)), the testicular weight result is “reduction in testicular weight”. The “effect on BTB integrity” value in data set [1] is “disruption of the BTB”. Moreover, the “cell viability versus control cultures” value with Sertoli cells is “no apparent differences”. Further, in data set [2] (4 μM, days 4-5), the “decline in TER compared to untreated controls” value is “approximately 50%”. Besides, the “toxicity to Sertoli cells” value in data set [2] (concluded from reversibility after peptide removal) is recorded as “non-toxic”. The “change in TER across Sertoli cell epithelia” value in data set [2] (peptide 0.2-4 μM added 24 hours after isolation, 1.2×10^6 cells/cm^2 (FIG. 4A)) was “dose-dependent decline in TER”. For the same substance, in data set [2] (peptide removed on day 5 by two washes (FIG. 4B)), the “time until TER reading indistinguishable from controls after peptide removal (TJ barrier reassembly)” value lay in the range of 3 to 4 days. The “effect of UV treatment on peptide structure” value in data set [4] is reported as “did not alter its structure”.

For the origin of these results see US20040242476A1, “Male contraceptives” (The Population Council, Inc, priority 2001, published 2004).
